The subject of one data set is noradrenaline release. To be noted: background; cited from earlier work.
For a further data set, the system named is nictitating membrane. Description: noradrenaline releasing effect in cats (in vivo), contraction of the nictitating membrane. The following applies: anesthetized cat, PEA i.p.
The test system of data set [1] is neuronal uptake of indirectly acting endogenic sympathomimetic amines. The following applies: background; cited from earlier work.
The test system of data set [2] is rabbit pulmonary artery, tyramine-induced noradrenaline release. The following applies: read-out: IC50, inhibition of noradrenaline releasing effect of tyramine.
Data set [3] has as its system isolated rat striatum. Description: dopaminergic activity increasing effect on isolated rat striatum preparations, in vitro. An excerpt: (§1) Determination of the dopamineric activity increasing effect, on isolated rat striatum preparations
(§2) Method: Kerecsen et al: Chromatography, the State of the Art, (Eds. Kalasz, Ettre) Akademiai Kiaoo Budepest (1985) page 195-203.

The subject of data set [4] is isolated rat striatum. Description: dopaminergic activity increasing effect on isolated rat striatum preparations, ex vivo. The method, then:
as §1, §2
In ex vivo tests the animals are treated s.c. for 3 weeks and the organ is removed 2 hours after administering the last injection.

The nature of another data set: in vivo. To be noted: rat.
The subject of data set [5] is tetrabenazine-induced depression. Nature of the data set: antagonism of tetrabenazine-induced depression in learning test: jumping test. The data set is classed as in vivo, rat. An excerpt:
II/3 Determination of antagonism of tetrabenazine-induced depression, in learning test, on rats
a) Jumping test. Method: J. Knoll, B. Knoll: Arzneimittel Forschung 8, 339 (1958), 9, 633 (1959).

Data set [6] can be described thus: effect exerted on motility, on rats (spontaneous passings in shuttle-box). The data set is classed as in vivo, rat. The method, then: II/4. Determination of effect exerted on motility, on rats
The test is carried out in a Shuttle-box without introducing current and light. The number of spontaneous passings over from side of the box to the other is registered and summarized by the apparatus for an observation period of 30 minutes. The test is carried out on groups comprising […] CFY rats of both sexes weighing […]. The test compound of the Formula I is added prior to the test subcutaneously, together with tetrabenazine and desmethyl-imiprmine (DMI) reference compounds, respectively.

The subject of data set [7] is noradrenaline uptake, nucleus free supernatant of rat cortex. Description: 3H-noradrenaline uptake in the nucleus free supernatant of rat cortex. The data set is classed as biochemical. To be noted: 37° C., 5 minutes. As for the experimental part: II/7. Determination of ^3 H-noradrenaine uptake in the nucleus free supernatant of rat cortex (in vivo)
The cortex is homogenized in 0.32M saccharose with a teflon potter, the cell nucleus is sedimented by centrifuging at 0° C. with 1000 g for 20 minutes; the supernatant thus obtained is used for the test. The intake is accomplished in a KrebsHeinseleit solution saturated with carbogen, in a final volume of 1 ml, at a ^3 H-noradrenaline concentration of […]. Pre-incubation and incubation are carried out at 37° C. for 5 minutes each. The reaction is stopped by adding 4 ml of ice-cold Krebs solution and the tissue is separated by GF/B filtration. Non-specific uptake is determined by using 10^-4 M nisoxetine at 37° C. The radioactivity of the GF/B filter-paper is determined by liquid scintillation measurement in a toluene-PPO-POPOPtritone mixture.

Data set [8] can be described thus: effect exerted on food intake, in rats. The data set is classed as in vivo, rat.
Data set [9] is described as follows: psychostimulant effect in rats: shuttle-box test. The data set is classed as in vivo, rat.
Data set [10] can be described thus: psychostimulant effect in rats: modified jumping test. It is filed as in vivo, rat.

Regarding `CN[C@@H](C)Cc1ccccc1` [methamphetamine], the noradrenaline releasing effect entry in the data set on noradrenaline release was “strong and long lasting”. The “contraction of the nictitating membrane” value in the data set on nictitating membrane was “contraction of long duration”. The “inhibition of neuronal uptake of indirectly acting endogenic sympathomimetic amines” value in data set [1] was “inhibits the neuronal uptake of indirectly acting endogenic sympathomimetic amines to a significant extent”.

As to `CCCNC(CC)Cc1ccccc1` (centres unmarked) [Example 6, N-propyl-1-phenyl-2-butyl-amine], the IC50 in [2] turned out to be 346 nM; in data set [7], 500 nM. The “DOPAC concentration of the bath of the organ” value in the data set on isolated rat striatum [3] (dose 0.3) was 172 pmol/g/min; in the data set with isolated rat striatum [3] (dose 1.0) it was 190 pmol/g/min; with isolated rat striatum [3] (dose 3.0) it was 331 pmol/g/min; in the data set on isolated rat striatum [3] (dose 10.0), 537 pmol/g/min; with isolated rat striatum [4] (daily dose 0.25, s.c. 3 weeks), 222 pmol/g/min; with isolated rat striatum [4] (daily dose 5.0, s.c. 3 weeks), 223 pmol/g/min. The “dopamine (DA) concentration of the bath of the organ” value in the data set with isolated rat striatum [3] (dose 0.3) turned out to be 214 pmol/g/min; in the data set with isolated rat striatum [3] (dose 1.0) it was 366 pmol/g/min; in the data set with isolated rat striatum [3] (dose 3.0), 290 pmol/g/min; with isolated rat striatum [3] (dose 10.0), 477 pmol/g/min; in the data set with isolated rat striatum [4] (daily dose 0.25, s.c. 3 weeks), 257 pmol/g/min; in the data set with isolated rat striatum [4] (daily dose 5.0, s.c. 3 weeks), 189 pmol/g/min. For the same molecule, the LD50 was 40 mg/kg in the data set “in vivo” (iv), 300 mg/kg in the data set “in vivo” (po) and 140 mg/kg in the data set “in vivo” (sc). Further, the “antagonism of the depressive effect of tetrabenazine” value in data set [5] (15 mg/kg) was “entirely antagonized”. For the same molecule, the “inhibition of the solid conditioned reflex” value in data set [5] (15 mg/kg (high doses)) is “can not be inhibited”. In addition, the “antagonism of motility inhibiting effect of 1 mg/kg of tetrabenazine” value in [6] (2.5 mg/kg s.c.) is on record as “significantly antagonized”. Moreover, in [6] (10 mg/kg s.c., 30 minutes observation), the motility entry is on record as “do not increase motility”. In addition, the food intake entry in data set [8] (rats fasted for 96 hours, similar dose (15 mg/kg)) is listed as “does not influence the food intake”; in [8] (well-fed satiated rats, 15 mg/kg p.o. or s.c.), “does not change food intake”.

As to `CC(N)Cc1ccccc1` (centres unmarked) [amphetamine, reference compound], the intersignal reaction entry in data set [9] (1 mg/kg s.c. daily) is given as “disproportionately high intersignal reaction”. Also, the “acquisition of a conditioned reaction and its retention” value in data set [9] (1 mg/kg s.c. daily, five days of observation) was “significantly increases the acquizition of a conditioned reaction and its retention”. In data set [9] (5-10 mg/kg), the general motility entry was “extremely high general motility increasing effect”. Besides, in the data set on noradrenaline release, the noradrenaline releasing effect result was “strong and long lasting”. The “contraction of the nictitating membrane” value with nictitating membrane is “contraction of long duration”. Moreover, the learning and retention result in data set [10] (larger doses, above 3 mg/kg) is reported as “deteriorate”; in data set [10] (small doses, up to 1-2 mg/kg), “improve”. The food intake result in data set [8] (rats fasted for 96 hours, 2-5 mg/kg, for 3-4 hours) was “completely inhibited”. Also, the anorectic effect entry in data set [8] (well-fed satiated rats, 1 mg/kg) is given as “exhibits an anorectic effect”.

The IC50 is the concentration needed to halve the response being measured. For orientation: LD50 means the dose expected to kill half of the subjects tested.

The values above are taken from US5075338A (priority 1986, dated 1991).
